Measured values published in PMC10743086, “Immunofluorescence-Based Assay for High-Throughput Analysis of Multidrug Resistance Markers in Non-Small Cell Lung Carcinoma Patient-Derived Cells” (Diagnostics, 2023).

How the values were obtained:
Format in all cases: cell-based, human
[1] = tested on: Non-cancer cells (CK8/18-) of patient-derived NSCLC cultures; test: Cytotoxicity in patient-derived NSCLC cultures, non-cancer cells; conditions: 7 days treatment
Description: (§1) Tissue samples were collected during surgery, and the NSCLC diagnosis, histological grade, stage, necrosis, and lymph node invasion status were determined by histopathological analysis. […] The surgical specimens were placed in a sterile tube containing antibiotic-antimycotic solution (Sigma-Aldrich Chemie GmbH, Taufkirchen, Germany) and immediately transported to the research laboratory for further processing.
(§2) Upon arrival, the tissue was manually chopped with a surgical blade in a Petri dish under sterile conditions. The samples were cut into 3–5 mm pieces and further dissociated using the Tumor Dissociation Kit (Miltenyi Biotec, Bergisch Gladbach, Germany). The Tumor Dissociation Kit was used to dissociate the cells from the tumor tissue according to the manufacturer’s instructions. The samples were incubated in a 37 °C orbital shaker (KS 4000 ic control, IKA, Königswinter, Germany) at 300 rpm for 90 min. After incubation, the dissociated tissue was placed in DMEM/Ham’s F12 (1:3 ratio) growth medium supplemented with 5% fetal bovine serum (Corning, NY, USA), antibiotic-antimycotic solution, 4 µg/mL hydrocortisone (Sigma-Aldrich Chemie GmbH, Taufkirchen, Germany), 1 µg/mL insulin (Sigma-Aldrich Chemie GmbH, Taufkirchen, Germany), 10 ng/mL epidermal growth factor (BioLegend, San Diego, CA, USA), and 24 µg/mL adenine (Sigma-Aldrich Chemie GmbH, Taufkirchen, Germany). The DMEM and Ham’s F12 growth media were purchased from Sigma-Aldrich Chemie GmbH (Taufkirchen, Germany).
(§3) The dissociated tissue was cultured in T-25 cell culture flasks until cell attachment was observed before the medium was replaced. If no cell attachment was achieved within 7 days, the sample was discarded. Successful patient-derived cultures were maintained at 37 °C in a humidified atmosphere with 5% CO2 and grown to confluence before undergoing further experiments. […] Partial trypsinization was performed by detaching the fibroblast-like cells with 1 mL of 0.05% trypsin for 1 min at 37 °C, followed by 2 min at room temperature (RT).
(§4) Vinorelbine and pemetrexed were purchased from Selleckchem (Houston, TX, USA). Carboplatin, cisplatin, docetaxel, etoposide, gemcitabine, gefitinib, and paclitaxel were purchased from Sigma-Aldrich Chemie GmbH (Taufkirchen, Germany). The cisplatin, carboplatin, and gemcitabine were dissolved in sterile water, while the etoposide, docetaxel, vinorelbine, paclitaxel, gefitinib, and pemetrexed were dissolved in DMSO and stored at −20 °C. Before treatment, all the stock solutions were freshly diluted in sterile water.
(§5) The primary cells were seeded in black, clear bottom 384-well cell culture microplates (Thermo Fisher Scientific, Waltham, MA, USA) in 50 µL of cell growth medium at a density of 1000 cells per well. The compounds were administered 72 h after seeding. The treatment lasted 7 days.
(§6) The immunofluorescence assay for the quantification of MDR markers was optimized to distinguish cancer cells from stromal cells using a cytokeratin 8/18 (CK8/18) antibody cocktail. The cells were fixed with 4% paraformaldehyde for 20 min at RT and washed three times with PBS using the Wellwash Versa microplate washer (Thermo Fisher Scientific, Waltham, MA, USA). The cells were then blocked with 2% bovine serum albumin (BSA) in PBS for 1 h at RT. […] Co-immunostaining with antibodies against MDR markers was performed to detect the presence of ABCB1, ABCC1, and ABCG2 in both the cancer and stromal cells. […] The secondary antibodies were incubated with the cells at RT for 2 h in the dark. […] Finally, the cells were washed three times with PBS and stored at 4 °C in the dark before imaging.

[2] = tested on: ABCC1 expression in cancer cells (CK8/18+); test: Immunofluorescence assay of ABCC1 expression in patient-derived NSCLC cultures
Description: as §1, §2, §3, §4, §5, §6

MRC-5 cells = test: Cytotoxicity by immunofluorescence cell scoring (cell counts), normal fibroblasts; conditions: 24 h treatment
Description: as §4
(§7) The compounds were administered 48 h after seeding. The treatment lasted 24 h.
as §6
(§8) The fluorescently labeled cells were imaged using the ImageXpress Pico Automated Cell Imaging System (Molecular Devices, San Jose, CA, USA) with a 4x objective after determining the appropriate exposure time for each illumination filter. Analysis of the obtained images was performed using CellReporterXpress software v. 2.8.2.669 (Molecular Devices). The cytotoxicity of the compounds was determined using the Cell Scoring Analysis Protocol. […] Expression of MDR markers was determined using the Multi-Wavelength Cell Scoring Analysis Protocol.

NCI-H460 cells = test: Cytotoxicity by immunofluorescence cell scoring (cell counts), NSCLC cell line; conditions: 24 h treatment
Description: as §4, §7, §6, §8

NCI-H460/R cells = test: Cytotoxicity by immunofluorescence cell scoring (cell counts), multidrug-resistant NSCLC cell line; conditions: 24 h treatment
Source text: Human non-small cell lung carcinoma cells (NCI-H460) were purchased from the American Type Culture Collection (Rockville, MD, USA), and normal embryonic lung fibroblasts (MRC-5) were purchased from the European Collection of Authenticated Cell Cultures (Salisbury, UK). Multidrug-resistant NCI-H460/R cells overexpressing ABCB1 were selected from the NCI-H460 cells after selective pressure with doxorubicin [21]. All the cell lines were maintained in MEM medium (Sigma-Aldrich Chemie GmbH, Taufkirchen, Germany) supplemented with 10% FBS, 2 mM L-glutamine, and antibiotic-antimycotic solution. All the cell lines were maintained at 37 °C in a humidified atmosphere with 5% CO2.
as §4, §7, §6, §8

[3] = tested on: ABCB1 expression in MRC-5 cells; test: Immunofluorescence assay of MDR marker ABCB1 expression; conditions: five concentrations, 24 h
Description: as §4, §7, §6, §8

[4] = tested on: ABCB1 expression in NCI-H460 cells; test: as above; conditions: five concentrations, 24 h
Description: as §4, §7, §6, §8

[5] = tested on: ABCB1 expression in NCI-H460/R cells; test: as above; conditions: five concentrations, 24 h
Description: as §4, §7, §6, §8

[6] = tested on: ABCG2 expression in cancer cells (CK8/18+); test: Immunofluorescence assay of ABCG2 expression in patient-derived NSCLC cultures; conditions: 7 days
Description: as §1, §2, §3, §4, §5, §6

[7] = tested on: ABCB1 expression in cancer cells (CK8/18+); test: Immunofluorescence assay of ABCB1 expression in patient-derived NSCLC cultures; conditions: 7 days
Description: as §1, §2, §3, §4, §5, §6

[8] = tested on: Cancer cells (CK8/18+) of patient-derived NSCLC cultures; test: Cytotoxicity in patient-derived NSCLC cultures, cancer cells; conditions: 7 days treatment
Description: as §1, §2, §3, §4, §5, §6

[9] = tested on: ABCC1 expression in non-cancer cells (CK8/18-); test: Immunofluorescence assay of ABCC1 expression in patient-derived NSCLC cultures, non-cancer cells; conditions: Table S2
Description: as §1, §2, §3, §4, §5, §6

[10] = culture TR58, non-cancer cells (CK8/18-)
[11] = culture TR64, non-cancer cells (CK8/18-)
[12] = culture TR65, non-cancer cells (CK8/18-)
[13] = culture TR84, non-cancer cells (CK8/18-)
[14] = culture TR87, non-cancer cells (CK8/18-)
[15] = MRC-5 (co-culture with NCI-H460)
[16] = MRC-5 (co-culture with NCI-H460/R)
[17] = NCI-H460 (co-culture with MRC-5)
[18] = NCI-H460/R (co-culture with MRC-5)
[19] = culture TR58, cancer cells (CK8/18+)
[20] = culture TR64, cancer cells (CK8/18+)
[21] = culture TR65, cancer cells (CK8/18+)
[22] = culture TR84, cancer cells (CK8/18+)
[23] = culture TR87, cancer cells (CK8/18+)

`N.N.O=C([O-])C1(C(=O)[O-])CCC1.[Pt+2]` [Carboplatin] showed an IC50 [1, 10] of 27.3 µM, an IC50 [1, 11] of 12.8 µM and an IC50 [1, 12] of 2.16 µM. The IC50 [1, 13] was 1.28 µM, the IC50 [1, 14] was 22.9 µM and the ABCC1 expression ([2]; culture TR58, cancer cells (CK8/18+), 7 days) was “no change”. The ABCC1 expression ([2]; culture TR64, cancer cells (CK8/18+), 7 days) was “increase (An increase in ABCB1, ABCC1, or ABCG2 expression of at least 20% at a minimum of one concentration is shown in the table.)”, the ABCC1 expression ([2]; culture TR65, cancer cells (CK8/18+), 7 days) was “increase (An increase in ABCB1, ABCC1, or ABCG2 expression of at least 20% at a minimum of one concentration is shown in the table.)” and the ABCC1 expression ([2]; culture TR84, cancer cells (CK8/18+), 7 days) was “increase (An increase in ABCB1, ABCC1, or ABCG2 expression of at least 20% at a minimum of one concentration is shown in the table.)”. The ABCC1 expression ([2]; culture TR87, cancer cells (CK8/18+), 7 days) was “increase (An increase in ABCB1, ABCC1, or ABCG2 expression of at least 20% at a minimum of one concentration is shown in the table.)”, the IC50 (MRC-5 cells; [15]) was greater than 100 µM and the IC50 (MRC-5 cells; [16]) was greater than 100 µM. For the same compound, the IC50 (MRC-5 cells; MRC-5 monoculture) was greater than 100 µM, the IC50 (NCI-H460 cells; [17]) was greater than 100 µM and the IC50 (NCI-H460 cells; NCI-H460 monoculture) was greater than 100 µM. For the same compound, the IC50 (NCI-H460/R cells; [18]) was greater than 100 µM, the IC50 (NCI-H460/R cells; NCI-H460/R monoculture) was greater than 100 µM and the “ABCB1 Expression” value [3, 15] was “no change”. For the same compound, the “ABCB1 Expression” value [3, 16] was “no change”, the “ABCB1 Expression” value ([3]; MRC-5 monoculture) was “no change” and the “ABCB1 Expression” value [4, 17] was “no change”. For the same compound, the “ABCB1 Expression” value ([4]; NCI-H460 monoculture) was “no change”, the “ABCB1 Expression” value [5, 18] was “no change” and the “ABCB1 Expression” value ([5]; NCI-H460/R monoculture) was “no change”. The ABCG2 expression [6, 19] was “increase (An increase in ABCB1, ABCC1, or ABCG2 expression of at least 20% at a minimum of one concentration is shown in the table.)”, the ABCG2 expression [6, 20] was “increase (An increase in ABCB1, ABCC1, or ABCG2 expression of at least 20% at a minimum of one concentration is shown in the table.)” and the ABCG2 expression [6, 21] was “increase (An increase in ABCB1, ABCC1, or ABCG2 expression of at least 20% at a minimum of one concentration is shown in the table.)”. The ABCG2 expression [6, 22] was “increase (An increase in ABCB1, ABCC1, or ABCG2 expression of at least 20% at a minimum of one concentration is shown in the table.)”, the ABCG2 expression [6, 23] was “increase (An increase in ABCB1, ABCC1, or ABCG2 expression of at least 20% at a minimum of one concentration is shown in the table.)” and the ABCB1 Expression [7, 19] was “no change”. The ABCB1 Expression [7, 20] was “increase (An increase in ABCB1, ABCC1, or ABCG2 expression of at least 20% at a minimum of one concentration is shown in the table.)”, the ABCB1 Expression [7, 21] was “increase (An increase in ABCB1, ABCC1, or ABCG2 expression of at least 20% at a minimum of one concentration is shown in the table.)” and the ABCB1 Expression [7, 22] was “increase (An increase in ABCB1, ABCC1, or ABCG2 expression of at least 20% at a minimum of one concentration is shown in the table.)”. For the same compound, the ABCB1 Expression [7, 23] was “increase (An increase in ABCB1, ABCC1, or ABCG2 expression of at least 20% at a minimum of one concentration is shown in the table.)”, the IC50 [8, 19] was 60.8 µM and the IC50 [8, 20] was 39 µM. The IC50 [8, 21] was 22.5 µM, the IC50 [8, 22] was 8.15 µM and the IC50 [8, 23] was 43.3 µM.
In the case of `COc1cc2ncnc(Nc3ccc(F)c(Cl)c3)c2cc1OCCCN1CCOCC1` [gefitinib], the ABCC1 expression ([2]; culture TR58, cancer cells (CK8/18+), Table S2) is reported as “no change”, the ABCC1 expression ([2]; culture TR64, cancer cells (CK8/18+), Table S2) is reported as “no change” and the ABCC1 expression ([2]; culture TR65, cancer cells (CK8/18+), Table S2) is reported as “increase (an increase in ABCC1 expression of at least 20% at a minimum of one concentration is shown in the Table.)”. The ABCC1 expression ([2]; culture TR84, cancer cells (CK8/18+), Table S2) was “increase (an increase in ABCC1 expression of at least 20% at a minimum of one concentration is shown in the Table.)”, the ABCC1 expression ([2]; culture TR87, cancer cells (CK8/18+), Table S2) was “no change” and the ABCC1 expression [9, 10] was “no change”. For the same compound, the ABCC1 expression [9, 11] was “no change”, the ABCC1 expression [9, 12] was “no change” and the ABCC1 expression [9, 13] was “no change”. For the same compound, the ABCC1 expression [9, 14] was “no change”.
